Consider one compound from US5036097A, “Phenylbutyl nitrone compositions and methods for prevention of gastric ulceration” (Oklahoma Medical Research Foundation, priority 1990, dated 1991).

The subject of data set [1] is microsomal lipid peroxidation. Put plainly: microsomal lipid peroxidation (liver microsomes). In kind it is biochemical. The following applies: 200 μM piroxicam, rat liver microsomes.
Protocol: Studies of Microsomal Lipid Peroxidation. […] Rats are euthanized by CO2 narcosis. The livers are excised rapidly into cold isolation medium containing 0.1M sodium phosphate and 2 mM EDTA, pH 7.4. The tissue is minced and homogenized in 3 ml isolation medium per gram of tissue using a Potter-Elvehjam homogenizer. The homogenate is centrifuged at 17,800 g for 20 min., and the pellet discarded. The supernatant is recentrifuged at 100,000 g for 60 min. The resulting pellet is resuspended in isolation buffer and recentrifuged at 100,000 g for 40 min. The final pellet is resuspended in storage buffer containing 100 mM potassium phosphate, 20% glycerol, 1 mM EDTA, 1 mM DTT and 20 μM butylated hydroxytoluene, pH 7.25. This suspension is frozen under liquid nitrogen and stored at -70° CL until use. Microsomal protein is determined by a modification of the Lowry method of Anderson, M. E. Methods Enzymol 113:548-555 (1985). […] Lipid peroxidation in the 1 ml reaction mixture is measured by mixing with 2 ml TBA reagent and assaying for thiobarbituric acid reactivity by the method of Buege and Aust. Values are expressed as the increase in absorbance at 532 nm ([MUT]) per mg microsomal protein and represent the mean of three replicates.
Data set [2] concerns piroxicam-induced gastric ulcers. The data set is described as follows: suppression of piroxicam-induced gastric ulcers by interventions (PBN, free radical scavengers, ascorbate). In kind it is in vivo, rat (male Sprague-Dawley). As to the method:
FIG. 2 is a graph of % control ulceration from piroxicam versus the % ulceration in the presence of free radical scavengers. The […] scavenger dimethylthiourea (DMTU, 500 mg/kg i.p.) was given 24 hours and 1 hour before piroxicam. […] The antioxidant butylated hydroxytoluene (BHT, 25 mg/kg/day i.p. in corn oil) was given for three days before and again 1 hour before piroxicam. The % control ulceration is determined by averaging the ratios of cm^2 ulceration in control stomachs from rats given piroxicam alone, and multiplying×100. +P< 0.01 compared to piroxicam alone.
Male Sprague-Dawley rats (Charles River, Wilmington, Mass.) weighing 300-325 g were housed individually in wire bottomed cages to prevent ingestion of hair and feces. Animals were maintained without food for 48 hours and without water for 24 hours prior to each experiment. Piroxicam or aspirin and other NSAIDS were suspended in a vehicle of 1% carboxymethylcellulose, 0.1% Tween 80 and 0.15 M HCl, and administered in a volume of 1 ml on the morning of study by oral gavage using an 18 gauge curved blunt needle (Popper and Sons, New Hyde Park, N.Y.). One ml of vehicle alone was administered for control experiments. HCl was added to the vehicle to insure an acid environment in the stomach in all studies. […] Four hours after the administration of NSAID or vehicle, rats were euthanized with sodium pentobarbital (100 mg/kg IP), and the surface area of ulceration per stomach was quantitated using morphometric techniques. Stomachs were removed, the lumen was exposed by an incision along the radius of greater curvature, and the stomach was washed in phosphate buffered saline. The luminal surface was laid out on a flat surface with gross folds removed by gentle distension. The percentage of surface involved with submucosal hemorrhage was then determined by point counting, as described by Weibel, E. R. Stereological Methods: Practical Methods for Biological Morphometry. Academic Press, New York 1980. This was done by tabulation of the percentage of points over ulcerations using a point counting eyepiece graticle (16×16 points in a square format). At the 12X magnification used on the Wild dissecting microscope (Wild-Heerbrugg, Basel, Switzerland), the graticle covered a 1 cm^2 area of the surface. Four to five non-overlapping sampling sites were taken to fully cover the exposed surface. To determine the total luminal surface area, the outline of the outer boundary of the stomach was traced using a transparent acetate sheet, and the area was determined from planimetry. The surface area of ulcerated regions per stomach was then determined by multiplying the surface density of ulceration regions by the luminal surface area of the stomach.
Differences in total luminal surface area in cm^2, surface area of ulcerated regions per stomach and biochemical analyses between each treatment intervention and its corresponding untreated control group are compared using the Mann-Whitney U Test, Dixon, W. J., Massey, F. J., Jr. Introduction to statistical methods, 4th edition. (New York: McGraw Hill, 1983). […] In vitro studies are compared using the Student's unpaired T-test, Dixon, W. J., Massey, F. J., Jr. Introduction to statistical methods, 4th edition. (New York: McGraw Hill, 1983). Values are expressed as mean±SEM. Significance is assumed when P<0.05.
In each experiment, the surface area of gastric ulceration produced by piroxicam in 15 treated rats was compared to that in 15 rats of the same age and size that were fasted simultaneously but which received no intervention. Phenylbutyl nitrone (30 mg/kg) was given orally in water 1 hour before piroxicam and also added to vehicle when piroxicam was administered. When intervention were given with piroxicam, the pH of the final mixture was adjusted if necessary to equal that of piroxicam and vehicle alone.

The subject of another data set is prostaglandin synthesis. The following applies: cited from earlier work.
Data set [3] relates to gastric mucosal glutathione. The data set is described as follows: glutathione in gastric mucosa. The following applies: 4 h after piroxicam. Type of data set: in vivo, rat. As to the method: MEASUREMENT OF GLUTATHIONE IN GASTRIC MUCOSA.
Gastric mucosal glutathione is measured in piroxicam-and vehicle-treated rat stomachs. Four hours after piroxicam or vehicle, stomachs are opened, washed with ice cold saline, and spread along a flat surface with lumens exposed. The gastric mucosa is then removed by scraping with a surgical blade. The mucosa is homogenized on ice in 1 ml of 1.15% KCl. Two aliquots of 250 μl are snap frozen in liquid nitrogen and stored at -70° C. for later determination of total glutathione by the method of Anderson, M. E. Methods Enzymol 113:548-555 (1985) and protein by a modification of the Lowry method, described by Bennett, J. P. Techniques Lipid Membrane Biochem. B408:1-22 (1982), using bovine serum albumin as a standard. Results are expressed as nmole/mg protein. To measure oxidized glutathione (GSSG), the remaining 500 μl is mixed with an equal volume of N-ethylmaleimide (NEM) in water (10 mM final concentration of NEM), snap frozen and stored at -70° C. After thawing for analysis, this mixture is passed over a C-18 Sep-Pak column (Waters Associates, Milford, Mass.) and washed with 1 ml phosphate buffer (pH 7.5). This technique for removing excess NEM has been previously shown to result in >90% recovery of GSSG. GSSG is then assayed by the method used above to determine total glutathione.

The next data set deals with gastric ulceration. The following applies: rats and mice; cited from earlier work.
In data set [4] the test system is gastric biopsies (lipid peroxidation). Put plainly: lipid peroxidation in stomachs (thiobarbituric acid reactivity of gastric punch biopsies). Type of data set: in vivo, rat. The following applies: 4 h after piroxicam, P<0.05 vs vehicle (0.075±0.004). The text has this: MEASUREMENT OF LIPID PEROXIDATION IN STOMACHS. Lipid peroxidation is studied in piroxicam-and vehicle-treated rat stomachs by measuring thiobarbituric acid (TBA) reactivity of gastric punch biopsies by the method of Buege and Aust Buege, J. A., Aust, S. D. Methods Enzymol 51:302-310 (1978). Four hours after piroxicam or vehicle, stomachs are opened along the radius of greater curvature, washed with ice cold normal saline, and spread along a flat surface with lumens exposed. Five punch biopsies from mucosal through serosal surfaces are taken from each stomach using a 3 mm diameter skin biopsy punch. Biopsies are taken over ulcers in piroxicam treated stomachs and randomly over gastric rugae (where ulcers occur) in vehicle control stomachs. Biopsies from each stomach are combined, homogenized on ice in 1 ml of cold 1.15% KCl, and mixed with 2 ml of TBA reagent (0.375% thiobarbituric acid and 15% trichloroacetic acid in 0.25 HCl, to which 0.01% butylated hydroxytoluene is added just prior to use). After incubation at 100° C. for 15 minutes, the mixture is cooled and centrifuged at 1,500 g for 10 min. The absorbance of the supernatant is measured at 532 nm, and results expressed as […] per stomach.

As for `CN1C(C(=O)Nc2ccccn2)=C(O)c2ccccc2S1(=O)=O` [piroxicam], the “NADPH-dependent microsomal lipid peroxidation” value in data set [1] is recorded as “no effect”. In data set [2] (ascorbate-treated stomachs (with piroxicam) vs piroxicam alone, P<0.001), the “ulceration (ascorbate experiment)” value is recorded as 0.031±0.009 cm^2. For the same compound, the ulcerations/unit area in data set [2] (piroxicam 23 mg/kg only, or plus PBN 30 mg/kg orally 1 hour before and with piroxicam, p<0.0052) is on record as 0.229±0.145 ulcerations/unit area. Further, the “inhibition of prostaglandin synthesis” value with prostaglandin synthesis is on record as “relative weak reversible inhibitor”. In addition, the “total glutathione in gastric mucosa” value in data set [3] (difference vs vehicle not statistically significant) was found to be 0.33±0.03 nmoles/mg protein. Moreover, in data set [3] (vehicle 6.4 0.7%, not statistically significant), the “fraction of GSSG” value was 8.9±0.9%. Further, the ulcerogenicity entry in the data set with gastric ulceration is given as “highly ulcerogenic”. Also, in data set [4], the “thiobarbituric acid reactivity, A532” value came out at 0.104±0.010 A532.
